Experimental data from paper PMC4322365, “A Ligand-observed Mass Spectrometry Approach Integrated into the Fragment Based Lead Discovery Pipeline” (Scientific Reports, 2015).
Values joined by “and” are separate entries in the source; they are usually repeats but may differ in a detail not shown here. Equal entries are not always repeated. Where two headings read alike, the source gives them in different places.

Key:
HCV RNA polymerase NS5B [1] = biological target: T1, HCV RNA polymerase NS5B (Hepatitis C virus genotype 1b, UniProt P26663); assay: biochemical; assay type: binding; conditions: for S/N in the validation assay / Binding degree (fraction of fragment ligands over total fragment in incubation): 12-hit mixture; for S/N in the validation assay: two replicates separated by a slash, S/N > 10 positive, ND: not detected by MS analysis; for MS S/N: Figure 2B, S/N factors from two independent experiments, legend says validation assay; for LE (ligand efficiency): derived from Kd at P/L 1:1 and heavy atom count; for Binding degree (fraction of fragment ligands over total fragment in incubation): P/L 2:1, 1:1, 1:2, theoretical value for about 1 mM affinity
T1 construct: NS5B with a C-terminal 10-His tag was expressed in E. coli; 10-His (C); made in house; host or cells: E. coli
T1 sequence (P26663 2420-3010): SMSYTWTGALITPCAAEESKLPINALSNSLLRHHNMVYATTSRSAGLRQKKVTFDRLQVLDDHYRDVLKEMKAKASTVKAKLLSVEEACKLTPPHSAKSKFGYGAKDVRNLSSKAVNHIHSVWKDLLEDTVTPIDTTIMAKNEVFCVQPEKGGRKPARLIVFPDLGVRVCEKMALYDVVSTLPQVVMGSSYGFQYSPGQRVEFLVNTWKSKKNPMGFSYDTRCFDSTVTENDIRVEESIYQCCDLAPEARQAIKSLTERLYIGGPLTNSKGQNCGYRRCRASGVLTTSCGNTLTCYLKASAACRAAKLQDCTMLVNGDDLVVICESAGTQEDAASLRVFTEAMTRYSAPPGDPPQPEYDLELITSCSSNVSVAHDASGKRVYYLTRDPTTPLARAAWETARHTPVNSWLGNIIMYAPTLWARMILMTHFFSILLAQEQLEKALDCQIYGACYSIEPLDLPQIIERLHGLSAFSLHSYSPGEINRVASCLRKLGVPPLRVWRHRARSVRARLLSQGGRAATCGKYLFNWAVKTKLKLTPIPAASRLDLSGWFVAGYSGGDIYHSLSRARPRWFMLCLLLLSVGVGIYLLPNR
Experimental: Binding degree of each fragment represented by the fraction of fragment ligands over the total amount of fragments during incubation reflects the relative order of binding strengths.
In order to determine the dissociation constant of each fragment ligand, we prepared calibration curves for the MS responses of ten fragments in a mixture (Figure S1) and measured the recovery rate of each fragment (Table S3), which were used to derive the actual concentrations of fragments bound to the target. Kd values were then calculated based on the measured concentrations of fragment ligands dissociated from the target (Table S3). […] Ligand efficiency (LE) values were then derived from Kd's as a measure to justify which fragments to further optimize and elaborate in the FBLD pipeline[46][47] (Figure 2A). […] SPR was then implemented for Kd determination for these fragment hits.
All fragments of the library were either purchased from Sigma or synthesized in our laboratory, and their structural diversity was summarized in Figure S4. The mixture was then filtered through an ultrafiltration membrane (50 KD MW cut-off) by centrifugation at 13000 g for 10 min at […]. The protein complexes bound with different fragments were washed twice with 10 mM ammonium acetate (pH 6.5) followed by centrifugation to remove the unbound fragments. The resulting solution of the complexes was transferred to a new centrifugal tube, and the ligands were dissociated from NS5B with 90% methanol in deionized water. The released ligands were then separated from the denatured protein by centrifugation at 13000 g for 10 min at 20°C. The supernatant containing the ligands was evaporated by a speed vacuum, reconstituted in 80% methanol, and analyzed by LC/MS. The protein-free control was prepared by using the binding buffer substitute for NS5B during incubation and it underwent the same process as the NS5B incubated sample. […] Each cocktail was then incubated with NS5B in the binding buffer at the same final concentration as in the primary screen. […] Ultrafiltration and complex dissociation were performed as described earlier to obtain fragment ligands. Samples were all prepared in duplicate and analyzed separately.

HCV RNA polymerase NS5B [2] = biological target: T1, HCV RNA polymerase NS5B; assay: Ligand-observed MS secondary screen of 7 subdivided fragment cocktails; assay type: binding; conditions: 7 cocktails of 50 or 84 fragments; two replicates separated by a slash; S/N > 10 positive; ND: not detected by MS analysis
Experimental: To reduce possible false-positives from the primary screen, the library was divided to 7 cocktails among which six consist of 50 fragments and the last one of 84 fragments. Individual cocktails were incubated with NS5B protein prior to protein complex isolation and ligand-observed MS analysis, resulting in a total of 12 positive hits after screening the seven cocktails (Figure 1C). […] Thus the confidence in hit identification was enhanced by selecting hits repetitively found from the two screens against cocktails of different diversity. It is noteworthy that the preliminary hits missed in the secondary screen might be due to either nonspecific binding or co-operative binding that only occurred when the entire library was incubated with the target. Apart from the 12 hits, 25 fragments with S/N < 10 from the secondary screen were regarded non-binders and discarded.
In the primary screening, a mixture of 384 fragments (each at a final concentration of 25 μM) and NS5B at 50 μM was prepared in the binding buffer of 20 mM MES (pH 6.5), 300 mM NaCl and 10% glycerol, and incubated for 40 min at 25°C. All fragments of the library were either purchased from Sigma or synthesized in our laboratory, and their structural diversity was summarized in Figure S4. The mixture was then filtered through an ultrafiltration membrane (50 KD MW cut-off) by centrifugation at 13000 g for 10 min at […]. The protein complexes bound with different fragments were washed twice with 10 mM ammonium acetate (pH 6.5) followed by centrifugation to remove the unbound fragments. The resulting solution of the complexes was transferred to a new centrifugal tube, and the ligands were dissociated from NS5B with 90% methanol in deionized water. The released ligands were then separated from the denatured protein by centrifugation at 13000 g for 10 min at 20°C. The supernatant containing the ligands was evaporated by a speed vacuum, reconstituted in 80% methanol, and analyzed by LC/MS. The protein-free control was prepared by using the binding buffer substitute for NS5B during incubation and it underwent the same process as the NS5B incubated sample. In the secondary screen, 384 fragments were divided into 7 cocktails, each consisting of 50 fragments except for the seventh cocktail of 84 fragments. Each cocktail was then incubated with NS5B in the binding buffer at the same final concentration as in the primary screen. […] Ultrafiltration and complex dissociation were performed as described earlier to obtain fragment ligands. Samples were all prepared in duplicate and analyzed separately.
Aliquots of reconstituted ultrafiltrates were analyzed on a Waters Synapt G1 high-dfinition mass spectrometer (Milford, MA) equipped with a Waters Acquity UPLC system. UPLC separation was carried out on a Waters Acquity BEH C18 column (2.1 mm × 50 mm, 1.7 μm) at a flow rate of 200 μL/min, with the mobile phases of water/0.1% formic acid (A) and acetonitrile/0.1% formic acid (B). In the primary screen, the LC gradient was as follows: 0–15 min, 2–50% B; 15–17 min, 50%–90% B; 17–20 min, 90% B. In the secondary screen and the validation assay, the first fraction of gradient (2–50% B) was shortened to 6 min. The regular ESI ion source operated in both positive- and negative-ion modes. Mass spectra were acquired within a mass range from 100 to 800 m/z, with capillary voltage 3.0 kV in the positive mode and 2.6 kV in the negative mode, sample cone voltage 54 V (positive mode) and 45 V (negative mode), extraction cone voltage 4.7 V (positive mode) and 4.0 V (negative mode), desolvation temperature 350°C, source temperature 100°C, and desolvation gas flow 500 L/h. External calibration with a solution of sodium formate achieved mass accuracy within 10 ppm. LC/MS chromatogram extraction and peak area calculation for specific fragments were performed by use of MassLynx software (v4.1, Waters) based on accurate mass measurement of the compound with a tolerance of 0.01 Da. […]

[3] = P/L = 1:1, protein 25 μM, estimated from MS-measured bound ligand concentration, read-out: Kd
[4] = P/L = 1:2, protein 25 μM, read-out: Kd
[5] = P/L = 2:1, protein 25 μM, read-out: Kd
[6] = Kd, P/L = 1:1, protein 25 μM, estimated from MS-measured bound ligand concentration

Row | SMILES | S/N in the validation assay (HCV RNA polymerase NS5B [1]) | MS S/N (HCV RNA polymerase NS5B [1]) | Kd (HCV RNA polymerase NS5B [1]; [3]) [mM] | Kd (HCV RNA polymerase NS5B [1]; [4]) [mM] | Kd (HCV RNA polymerase NS5B [1]; [5]) [mM] | LE (ligand efficiency) (HCV RNA polymerase NS5B [1]) | S/N in the 2nd screen (HCV RNA polymerase NS5B [2]) | Binding degree (fraction of fragment ligands over total fragment in incubation) (HCV RNA polymerase NS5B [1]) [%] | Kd (HCV RNA polymerase NS5B [1]; [6]) [mM] | Kd (HCV RNA polymerase NS5B [1]; Kd, P/L = 1:2, protein 25 μM) [mM] | Kd (HCV RNA polymerase NS5B [1]; Kd, P/L = 2:1, protein 25 μM) [mM]
1 | Oc1ccc(F)c(Cl)c1 [Fragment 85] | 60.0 and 53.0 | 79 and 86 | 5.67 ± 0.34 | 6.8 ± 0.99 | 6.2 ± 0.51 | 0.33 | 79.0 and 86.0 | – | – | – | –
2 | N#CCc1ccc(O)cc1 [Fragment 114] | 983.0 and 1198.0 | 103 and 91 | – | – | – | 0.40 | 103.0 and 91.0 | ~2.4 | 1.01 ± 0.06 | 1.2 | 1.13 ± 0.25
3 | Cc1ccc2oc(=O)ccc2c1 [Fragment 117] | 111.0 and 122.0 | 34 and 40 | 9.31 ± 0.23 | 9.18 ± 2.75 | 8.96 ± 0.84 | 0.22 | 34.3 and 39.6 | – | – | – | –
4 | Cn1c(=O)cc(O)c2ccccc21 [Fragment 130] | 378.0 and 376.0 | 48 and 49 | 1.19 ± 0.08 | 1.37 ± 0.04 | 0.95 ± 0.08 | 0.30 | 48.4 and 49.4 | ~2.4 | – | – | –
5 | Cc1cc(N)n(-c2ccccc2)n1 [Fragment 131] | 56.0 and 46.0 | 23 and 19 | 13.4 ± 1.98 | 7.29 ± 0.19 | 12.7 ± 2.03 | 0.20 | 23.1 and 19.4 | – | – | – | –
6 | Nc1ccc(C(F)(F)F)cn1 [Fragment 162] | 466.0 and 513.0 | 20 and 17 | 8.96 ± 2.49 | 9.53 ± 0.26 | 10.2 ± 1.3 | 0.25 | 19.7 and 17.3 | – | – | – | –
7 | O=C(O)c1ccc(C(F)(F)F)cc1 [Fragment 204] | 21.0 and 23.0 | 22 and 20 | 4.04 ± 0.34 | 5.27 | 3.78 ± 0.35 | 0.25 | 22.4 and 19.8 | – | – | – | –
8 | Oc1ccc(SC(F)(F)F)cc1 [Fragment 237] | 212.0 and 196.0 | 29 and 36 | 5.64 ± 0.06 | 6.45 ± 1.67 | 5.19 ± 0.46 | 0.25 | 29.0 and 36.0 | – | – | – | –
9 | N#CC(c1ccccc1)N1CCOCC1 (stereo not drawn) [Fragment 328] | 170.0 and 155.0 | 17 and 16 | – | – | – | 0.14 | 17.4 and 16.3 | – | 20 | 26.4 ± 7.92 | 23.5 ± 2.65
10 | Cc1nc2ccccc2nc1C [Fragment 339] | 172.0 and 223.0 | 66 and 62 | – | – | – | 0.22 | 66.2 and 62.4 | – | 10.2 ± 0.45 | 8.95 ± 2.03 | 11.2 ± 1.45
